# Legend:
# Assay type in all cases: functional
# [1] = system: OVCAR-8; assay: Cytotoxicity against human OVCAR8 cells assessed as cell growth at 100 uM incubated for 48 hrs by sulforhodamine B assay relative to control; conditions: OVCAR-8, 48 h, read-out: Activity
# [2] = system: COLO 205; assay: Cytotoxicity against human COLO205 cells assessed as cell growth at 100 uM incubated for 48 hrs by sulforhodamine B assay relative to control; conditions: COLO 205, 48 h, read-out: Activity
# [3] = system: U-251; assay: Cytotoxicity against human U251 cells incubated for 48 hrs by sulforhodamine B assay; conditions: U-251, 48 h
# [4] = system: NCI-H226; assay: Cytotoxicity against human NCI-H226 cells assessed as cell growth at 1 uM incubated for 48 hrs by sulforhodamine B assay relative to control; conditions: NCI-H226, 48 h, read-out: Activity
# [5] = system: Malme-3M; assay: Cytotoxicity against human MALME-3M cells assessed as cell growth at 0.1 uM incubated for 48 hrs by sulforhodamine B assay relative to control; conditions: read-out: Activity
# [6] = system: EKVX; assay: Cytotoxicity against human EKVX cells assessed as cell growth at 0.1 uM incubated for 48 hrs by sulforhodamine B assay relative to control; conditions: read-out: Activity
# [7] = system: SF-268; assay: Cytotoxicity against human SF268 cells incubated for 48 hrs by sulforhodamine B assay; conditions: SF-268, 48 h
# [8] = system: T47D; assay: Cytotoxicity against human T47D cells assessed as cell growth at 0.01 uM incubated for 48 hrs by sulforhodamine B assay relative to control; conditions: read-out: Activity
# [9] = system: Hs-578T; assay: Cytotoxicity against human Hs 578T cells assessed as cell growth at 1 uM incubated for 48 hrs by sulforhodamine B assay relative to control; conditions: read-out: Activity
# [10] = system: TK-10; assay: Cytotoxicity against human TK10 cells assessed as cell growth at 100 uM incubated for 48 hrs by sulforhodamine B assay relative to control; conditions: TK-10, 48 h, read-out: Activity
# [11] = system: MDA-MB-468; assay: Cytotoxicity against human MDA-MB-468 cells assessed as cell growth at 1 uM incubated for 48 hrs by sulforhodamine B assay relative to control; conditions: MDA-MB-468, 48 h, read-out: Activity
# [12] = system: NCI-H322M; assay: Cytotoxicity against human NCI-H322M cells assessed as cell growth at 10 uM incubated for 48 hrs by sulforhodamine B assay relative to control; conditions: read-out: Activity
# [13] = system: NCI-H322M; assay: Cytotoxicity against human NCI-H322M cells assessed as cell growth at 100 uM incubated for 48 hrs by sulforhodamine B assay relative to control; conditions: read-out: Activity
# [14] = system: HT-29; assay: Cytotoxicity against human HT-29 cells assessed as cell growth at 10 uM incubated for 48 hrs by sulforhodamine B assay relative to control; conditions: HT-29, 48 h, read-out: Activity
# [15] = system: NCI-H522; assay: Cytotoxicity against human NCI-H522 cells assessed as cell growth at 1 uM incubated for 48 hrs by sulforhodamine B assay relative to control; conditions: NCI-H522, 48 h, read-out: Activity
# [16] = system: OVCAR-8; assay: Cytotoxicity against human OVCAR8 cells assessed as cell growth at 10 uM incubated for 48 hrs by sulforhodamine B assay relative to control; conditions: OVCAR-8, 48 h, read-out: Activity
# [17] = system: A549; assay: Cytotoxicity against human A549/ATCC cells incubated for 48 hrs by sulforhodamine B assay; conditions: A549, 48 h
# [18] = system: HCT-15; assay: Cytotoxicity against human HCT15 cells assessed as cell growth at 0.1 uM incubated for 48 hrs by sulforhodamine B assay relative to control; conditions: HCT-15, 48 h, read-out: Activity
# [19] = system: OVCAR-4; assay: Cytotoxicity against human OVCAR4 cells assessed as cell growth at 0.1 uM incubated for 48 hrs by sulforhodamine B assay relative to control; conditions: OVCAR-4, 48 h, read-out: Activity
# [20] = system: MDA-MB-231; assay: Cytotoxicity against human MDA-MB-231 cells assessed as cell growth at 1 uM incubated for 48 hrs by sulforhodamine B assay relative to control; conditions: MDA-MB-231, 48 h, read-out: Activity
# [21] = system: Hs-578T; assay: Cytotoxicity against human Hs 578T cells assessed as cell growth at 100 uM incubated for 48 hrs by sulforhodamine B assay relative to control; conditions: read-out: Activity
# [22] = system: SW-620; assay: Cytotoxicity against human SW620 cells assessed as cell growth at 0.1 uM incubated for 48 hrs by sulforhodamine B assay relative to control; conditions: SW-620, 48 h, read-out: Activity
# [23] = system: RXF 393; assay: Cytotoxicity against human RXF393 cells assessed as cell growth at 1 uM incubated for 48 hrs by sulforhodamine B assay relative to control; conditions: RXF 393, 48 h, read-out: Activity
# [24] = system: SR; assay: Cytotoxicity against human SR cells assessed as cell growth at 100 uM incubated for 48 hrs by sulforhodamine B assay relative to control; conditions: read-out: Activity
# [25] = system: SNB-75; assay: Cytotoxicity against human SNB75 cells assessed as cell growth at 0.1 uM incubated for 48 hrs by sulforhodamine B assay relative to control; conditions: SNB-75, 48 h, read-out: Activity
# [26] = system: Hs-578T; assay: Cytotoxicity against human Hs 578T cells assessed as cell growth at 0.01 uM incubated for 48 hrs by sulforhodamine B assay relative to control; conditions: read-out: Activity
# [27] = system: HCC 2998; assay: Cytotoxicity against human HCC2998 cells assessed as cell growth at 100 uM incubated for 48 hrs by sulforhodamine B assay relative to control; conditions: HCC 2998, 48 h, read-out: Activity
# [28] = system: CAKI-1; assay: Cytotoxicity against human Caki1 cells assessed as cell growth at 0.1 uM incubated for 48 hrs by sulforhodamine B assay relative to control; conditions: CAKI-1, 48 h, read-out: Activity
# [29] = system: 786-0; assay: Cytotoxicity against human 786-0 cells assessed as cell growth at 100 uM incubated for 48 hrs by sulforhodamine B assay relative to control; conditions: 786-0, 48 h, read-out: Activity
# [30] = system: A549; assay: Cytotoxicity against human A549/ATCC cells assessed as cell growth at 10 uM incubated for 48 hrs by sulforhodamine B assay relative to control; conditions: A549, 48 h, read-out: Activity
# [31] = system: KM12; assay: Cytotoxicity against human KM12 cells assessed as cell growth at 0.1 uM incubated for 48 hrs by sulforhodamine B assay relative to control; conditions: KM12, 48 h, read-out: Activity
# [32] = system: SNB-19; assay: Cytotoxicity against human SNB19 cells incubated for 48 hrs by sulforhodamine B assay; conditions: SNB-19, 48 h
# [33] = read-out: LC50 (the source's name)
# [34] = read-out: pLC50 (the source's name) (converted)
smiles,measurement,setting,value
COc1ccc(-c2nocc2-c2cc(OC)c(OC)c(OC)c2)cc1,growth at 100 µM,[1],4%
same,growth at 100 µM,[2],-40%
same,GI50,[3]; read-out: GI50,0.0906 µM
same,CC50,[3]; [33],> 100 µM
same,TGI,[3]; read-out: TGI,65.8 µM
same,GI50,[3]; read-out: pGI50 (converted),0.0912 µM
same,CC50,[3]; [34],> 100 µM
same,TGI,[3]; read-out: pTGI (converted),66.1 µM
same,growth at 1 µM,[4],75%
same,growth at 0.1 µM,[5],55%
same,growth at 0.1 µM,[6],49%
same,GI50,[7]; read-out: GI50,0.549 µM
same,LC50,[7]; read-out: LC50,> 100 µM
same,TGI,[7]; read-out: TGI,> 100 µM
same,GI50,[7]; read-out: pGI50 (converted),0.55 µM
same,LC50,[7]; read-out: pLC50 (converted),> 100 µM
same,TGI,[7]; read-out: pTGI,> 100 µM
same,growth at 0.01 µM,[8],81%
same,growth at 1 µM,[9],31%
same,growth at 100 µM,[10],-10%
same,growth at 1 µM,[11],3%
same,growth at 10 µM,[12],35%
same,growth at 100 µM,[13],18%
same,growth at 10 µM,[14],3%
same,growth at 1 µM,[15],-39%
same,growth at 10 µM,[16],25%
same,GI50,[17]; read-out: GI50,0.0869 µM
same,LC50,[17]; read-out: LC50,> 100 µM
same,TGI,[17]; read-out: TGI,> 100 µM
same,GI50,[17]; read-out: pGI50 (converted),0.0871 µM
same,LC50,[17]; read-out: pLC50 (converted),> 100 µM
same,TGI,[17]; read-out: pTGI,> 100 µM
same,growth at 0.1 µM,[18],29%
same,growth at 0.1 µM,[19],73%
same,growth at 1 µM,[20],38%
same,growth at 100 µM,[21],10%
same,growth at 0.1 µM,[22],32%
same,growth at 1 µM,[23],-7%
same,growth at 100 µM,[24],-7%
same,growth at 0.1 µM,[25],47%
same,growth at 0.01 µM,[26],92%
same,growth at 100 µM,[27],-47%
same,growth at 0.1 µM,[28],62%
same,growth at 100 µM,[29],-17%
same,growth at 10 µM,[30],29%
same,growth at 0.1 µM,[31],26%
same,GI50,[32]; read-out: GI50,0.373 µM
same,CC50,[32]; [33],> 100 µM
same,TGI,[32]; read-out: TGI,> 100 µM
same,GI50,[32]; read-out: pGI50 (converted),0.372 µM
same,CC50,[32]; [34],> 100 µM
same,TGI,[32]; read-out: pTGI,> 100 µM

# From ChEMBL document CHEMBL4145521, “Regioselective synthesis of 3,4-diaryl-5-unsubstituted isoxazoles, analogues of natural cytostatic combretastatin A4” (Eur J Med Chem, 2018)
